Data set [1] deals with Human immunodeficiency virus 1. The experiment in a line: Antiviral activity against HIV1 infected in human C8166 cells expressing LTR after 3 days by luciferase reporter gene assay. It is filed as functional, organism-based. The conditions noted are these: Human immunodeficiency virus 1, C8166, 72 h. (In general: In a reporter assay the amount or activity of a reporter protein is the signal.)

The nature of data set [2]: Cytotoxicity against human C8166 cells. The class given is cell-based.
The target in data set [3] is Structural capsid protein (Human immunodeficiency virus 1, UniProt Q76129). The experiment in a line: Inhibition of HIV1 capsid-nucleocapsid assembly expressed in Escherichia coli BL21(DE3) after 2 hrs by fluorescence assay.
Chain of Structural capsid protein (Q76129 whole entry): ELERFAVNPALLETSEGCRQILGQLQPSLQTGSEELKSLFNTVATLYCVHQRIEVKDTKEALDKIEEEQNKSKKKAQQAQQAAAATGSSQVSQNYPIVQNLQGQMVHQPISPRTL
Data set [4] deals with Structural capsid protein (Human immunodeficiency virus 1) (UniProt Q76129). The experiment in a line: Inhibition of HIV1 capsid-nucleocapsid assembly expressed in Escherichia coli BL21(DE3) at 3.5 uM after 2 hrs by fluorescence assay relative to control.
Chain of Structural capsid protein (Human immunodeficiency virus 1) (Q76129 as listed by the source): as the sequence (Q76129 whole entry) above

Consider 26 molecules from ChEMBL document CHEMBL2385011, “Optimization of a 1,5-dihydrobenzo[b][1,4]diazepine-2,4-dione series of HIV capsid assembly inhibitors 1: addressing configurational instability through scaffold modification” (Bioorg Med Chem Lett, 2013).

Each structure is given as a SMILES string.

What is called EC50 is the midpoint of the concentration-response curve. In general, CC50 refers to the concentration giving 50% cytotoxicity. A low value points to harm at low concentration. One may read the IC50 as the concentration that gives 50% inhibition. Read a low IC50 as inhibition by little substance. `CCN1C(=O)N(c2ccc(C)cc2)C(=O)N(c2ccccc2)c2cc(C(F)(F)F)ccc21` had an EC50 in data set [1] of 540 nM. Moreover, in data set [2], the 50% cytotoxic concentration (CC50) is > 6500 nM. The same molecule yielded a concentration for half-maximal inhibition (IC50) in data set [3] of 190 nM.

Regarding `CCN1C(=O)C2(CCc3c(O)cccc32)C(=O)N(c2ccccc2)c2cc(C(F)(F)F)ccc21` (stereo unspecified), the EC50 in data set [1] is 780 nM. Moreover, in data set [2], the CC50 is > 21000 nM. Also, in data set [3], the concentration for half-maximal inhibition (IC50) came out at 240 nM.

`CCN1C(=O)C2(CCc3cc(OC)ccc32)C(=O)N(c2ccccc2)c2cc(C(F)(F)F)ccc21` (stereo unspecified) showed an EC50 in data set [1] of 510 nM. The 50% cytotoxic concentration (CC50) in data set [2] is > 4000 nM. For the same molecule, in data set [3], the half-inhibitory concentration (IC50) is 160 nM.

The molecule `CCN1C(=O)N(c2cccc(C(=O)NC)c2)C(=O)N(c2ccccc2)c2cc(C(F)(F)F)ccc21` yielded an EC50 in data set [1] of 1200 nM. Also, the cytotoxic concentration (CC50) in data set [2] was > 22000 nM. Besides, the IC50 in data set [3] was determined as 280 nM.

`CCN1C(=O)C2(CC(C(C)C)c3cc(O)ccc32)C(=O)N(c2ccccc2)c2cc(C(F)(F)F)ccc21` (stereo unspecified): the IC50 in data set [3] was determined as 1100 nM.

`CCN1C(=O)C(c2ccccc2)C(=O)N(c2ccccc2)c2cc(C(F)(F)F)ccc21` (stereo unspecified): in data set [1], a half-maximal effect (EC50) was put at 2600 nM. The half-inhibitory concentration (IC50) in data set [3] came to 730 nM.

What is called inhibition is the share of the control response that was lost under treatment. A higher inhibition goes with a strong effect. The molecule `CN1C(=O)C(C)(c2ccccc2)C(=O)N(c2ccccc2)c2cc(C(F)(F)F)ccc21` (stereo unspecified) showed an inhibition in data set [4] of 8%.

`CCN1C(=O)N(c2ccc(C(=O)NC)cc2)C(=O)N(c2ccccc2)c2cc(C(F)(F)F)ccc21`: in data set [1], the EC50 was determined as 480 nM. Besides, in data set [2], the midpoint of cytotoxicity, the CC50, lay at 31000 nM. This molecule showed a half-inhibitory concentration (IC50) in data set [3] of 130 nM.

In turn, `CCN1C(=O)N(c2ccc(OC)cc2)C(=O)N(c2ccccc2)c2cc(C(F)(F)F)ccc21` displayed an EC50 in data set [1] of 720 nM. The CC50 in data set [2] was > 16000 nM. The half-maximal inhibitory concentration (IC50) in data set [3] turned out to be 180 nM.

In data set [1], `CCN1C(=O)N(c2ccccc2)C(=O)N(c2ccccc2)c2cc(C(F)(F)F)ccc21` showed an EC50 of 600 nM. Also, the CC50 in data set [2] is > 4000 nM. The midpoint of inhibition in data set [3], the IC50, lay at 630 nM.

`CCN1C(=O)N(c2ccc(O)c(C)c2)C(=O)N(c2ccccc2)c2cc(C(F)(F)F)ccc21` showed a 50% effective concentration (EC50) in data set [1] of 260 nM. The molecule further showed a CC50 in data set [2] of 17000 nM. Moreover, in data set [3], 90 nM corresponded to half-maximal inhibition (IC50).

As for `CCN1C(=O)N(c2cccc(C(=O)NCCN3CCOCC3)c2)C(=O)N(c2ccccc2)c2cc(C(F)(F)F)ccc21`, the EC50 in data set [1] stood at 1100 nM. In addition, the CC50 in data set [2] is > 19000 nM. In data set [3], this molecule registered an IC50 of 220 nM.

As to `CCC1CC2(C(=O)N(CC)c3ccc(C(F)(F)F)cc3N(c3ccccc3)C2=O)c2ccc(O)cc21` (stereo unspecified), the midpoint of inhibition in data set [3], the IC50, lay at 730 nM.

As to `CCN1C(=O)C2(CC(C)c3cc(O)ccc32)C(=O)N(c2ccccc2)c2cc(C(F)(F)F)ccc21` (stereo unspecified), in data set [3], the half-maximal inhibitory concentration (IC50) is 290 nM.

In the case of `CCN1C(=O)C2(CC(=O)c3cc(O)ccc32)C(=O)N(c2ccccc2)c2cc(C(F)(F)F)ccc21` (stereo unspecified), the half-inhibitory concentration (IC50) in data set [3] came to 1500 nM.

The molecule `CCN1C(=O)N(c2cccc(OC)c2)C(=O)N(c2ccccc2)c2cc(C(F)(F)F)ccc21` showed an EC50 in data set [1] of 1200 nM. For the same molecule, the half-maximal cytotoxic concentration (CC50) in data set [2] is > 20000 nM. The IC50 in data set [3] was found to be 210 nM.

In data set [1], `CN1C(=O)C2(CCc3cc(N)ccc32)C(=O)N(c2ccccc2)c2cc(C(F)(F)F)ccc21` (stereo unspecified) gave an EC50 of 410 nM. In data set [2], the CC50 is > 15000 nM. In data set [3], this molecule displayed an IC50 of 160 nM.

As to `CCN1C(=O)C2(CCc3ccc(O)cc32)C(=O)N(c2ccccc2)c2cc(C(F)(F)F)ccc21` (stereo unspecified), the concentration giving a half-maximal response (EC50) in data set [1] is 1200 nM. Besides, in data set [2], the CC50 was > 27000 nM. In data set [3], the IC50 worked out at 590 nM.

`CCN1C(=O)C2(CCc3cc(O)ccc32)C(=O)N(c2ccccc2)c2cc(C(F)(F)F)ccc21` (stereo unspecified) had a half-maximal effective concentration (EC50) in data set [1] of 690 nM. In addition, in data set [2], half-maximal cytotoxicity (CC50) was put at 32000 nM. In data set [3], this molecule displayed a half-maximal inhibitory concentration (IC50) of 210 nM.

Consider `CN1C(=O)C2(CCc3cc(NC(=O)[C@@H]4CCCN4)ccc32)C(=O)N(c2ccccc2)c2cc(C(F)(F)F)ccc21` (stereo partly specified), for which the EC50 in data set [1] was 520 nM. Moreover, in data set [2], the midpoint of cytotoxicity, the CC50, lay at 11000 nM. The molecule also came in with an IC50 in data set [3] of 110 nM.

As to `CCN1C(=O)N(c2cc(C)c(O)c(Cl)c2)C(=O)N(c2ccccc2)c2cc(C(F)(F)F)ccc21`, the response in data set [1] was half-maximal at 150 nM (EC50). Also, the CC50 in data set [2] is > 10000 nM. Moreover, the concentration for half-maximal inhibition (IC50) in data set [3] was 60 nM.

With `CCN1C(=O)N(c2ccc(O)cc2)C(=O)N(c2ccccc2)c2cc(C(F)(F)F)ccc21`, it took 380 nM to reach a half-maximal effect in data set [1] (EC50). This molecule came in with a CC50 in data set [2] of 35000 nM. Moreover, the 50% inhibitory concentration (IC50) in data set [3] came to 50 nM.

In data set [3], `CCN1C(=O)C2(CC(O)c3cc(O)ccc32)C(=O)N(c2ccccc2)c2cc(C(F)(F)F)ccc21` (stereo unspecified) had an IC50 of 2100 nM.

In the case of `CCN1C(=O)C2(CCc3ccccc32)C(=O)N(c2ccccc2)c2cc(C(F)(F)F)ccc21` (stereo unspecified), in data set [1], the EC50 was found to be 1600 nM. Moreover, the CC50 in data set [2] is > 16000 nM. In addition, half-maximal inhibition in data set [3] (IC50) was put at 460 nM.

`CCN1C(=O)C2(CC(N)c3cc(O)ccc32)C(=O)N(c2ccccc2)c2cc(C(F)(F)F)ccc21` (stereo unspecified) gave a 50% inhibitory concentration (IC50) in data set [3] of 3600 nM. That is a single-digit micromolar value.

As to `CN1C(=O)C(c2ccccc2)C(=O)N(c2ccccc2)c2cc(C(F)(F)F)ccc21` (stereo unspecified), the half-inhibitory concentration (IC50) in data set [3] was 680 nM.
